# Article PMC10338470, “Phase 1 study of GSK3368715, a type I PRMT inhibitor, in patients with advanced solid tumors” (British Journal of Cancer, 2023)
# Test: Plasma pharmacokinetics (LC-MS-MS, noncompartmental analysis)
# Type: in vivo, human
# Conditions: for AUC0-24, geometric mean (%CVb) / Cmax, geometric mean (%CVb) / t1/2, geometric mean (%CVb) / tmax, median (range): plasma
# Description: In both the dose-escalation and PK/PD cohorts, plasma samples for PK analysis were obtained following dosing on day 1 and pre- and postdose on days 2, 3, 4, 8, 15, 16, 22, and predose every 4 weeks thereafter. Plasma concentrations for GSK3368715 and its metabolites (GSK3963583, GSK3983164, and GSK3510519) were quantified using a validated ultra high-performance liquid chromatography-mass spectrometry-mass spectrometry (LC-MS-MS) method. PK parameters were analyzed using noncompartmental methods.
# Adverse events and DLTs were summarized descriptively by dose cohort. Pharmacokinetic parameters of GSK3368715 and its metabolites (GSK3963583 and GSK3983164) were estimated in the PK/PD population (all participants for whom a PK sample was obtained) using a noncompartmental analysis model (WinNonlin version 8.1) and summarized descriptively. Best overall response as per RECIST 1.1 was summarized descriptively by dose cohort. Levels of tumor cell and plasma pharmacodynamic biomarkers were also summarized descriptively.
# [1] = GSK3368715 50-mg dose escalation cohort, Day 1
# [2] = GSK3368715 50-mg dose escalation cohort, Day 15
# [3] = GSK3368715 100-mg PK/PD cohort, Day 1
# [4] = GSK3368715 100-mg PK/PD cohort, Day 15
# [5] = GSK3368715 100-mg dose escalation cohort, Day 1
# [6] = GSK3368715 100-mg dose escalation cohort, Day 15
# [7] = GSK3368715 100-mg total, Day 15
compound,measurement,setting,value
CCOCC1(COCC)CCC(c2[nH]ncc2CN(C)CCNC)CC1 [GSK3368715],Increase of Cmax and AUC0−24 with dose,dose range studied (50-200 mg),dose proportional
same,PK variability (%CVb),in vivo,high PK variability
same,"AUC0-24, geometric mean (%CVb)","GSK3368715 200 mg, Day 1",1274.7 (43.8) h•ng/mL
same,"Cmax, geometric mean (%CVb)","GSK3368715 200 mg, Day 1",336.8 (72.6) ng/mL
same,"t1/2, geometric mean (%CVb)","GSK3368715 200 mg, Day 1",15.9 h
same,"tmax, median (range)","GSK3368715 200 mg, Day 1","1.1 (0.4, 3.1) h"
same,"AUC0-24, geometric mean (%CVb)","GSK3368715 200 mg, Day 15",4861.4 (45.3) h•ng/mL
same,"Cmax, geometric mean (%CVb)","GSK3368715 200 mg, Day 15",729.2 (42.8) ng/mL
same,"t1/2, geometric mean (%CVb)","GSK3368715 200 mg, Day 15",2.9 (43.5) h
same,"tmax, median (range)","GSK3368715 200 mg, Day 15","1.0 (0.5, 3.1) h"
same,"AUC0-24, geometric mean (%CVb)",[1],259.5 (--) h•ng/mL
same,"Cmax, geometric mean (%CVb)",[1],107.2 (48.8) ng/mL
same,"tmax, median (range)",[1],"0.28 (0.25, 1.1) h"
same,"AUC0-24, geometric mean (%CVb)",[2],581.9 (101.4) h•ng/mL
same,"Cmax, geometric mean (%CVb)",[2],111.9 (48.5) ng/mL
same,"tmax, median (range)",[2],"3.0 (0.5, 3.1) h"
same,"AUC0-24, geometric mean (%CVb)",[3],937.6 (30.9) h•ng/mL
same,"Cmax, geometric mean (%CVb)",[3],237.6 (62.3) ng/mL
same,"t1/2, geometric mean (%CVb)",[3],8.8 (--) h
same,"tmax, median (range)",[3],"0.5 (0.3, 3.1) h"
same,"AUC0-24, geometric mean (%CVb)",[4],1628.8 (60.4) h•ng/mL
same,"Cmax, geometric mean (%CVb)",[4],382.7 (67.4) ng/mL
same,"t1/2, geometric mean (%CVb)",[4],1.4 (--) h
same,"tmax, median (range)",[4],"1.0 (0.5, 2.1) h"
same,"AUC0-24, geometric mean (%CVb)",[5],1020.7 (26.7) h•ng/mL
same,"Cmax, geometric mean (%CVb)",[5],145.0 (207.3) ng/mL
same,"t1/2, geometric mean (%CVb)",[5],7.2 (--) h
same,"tmax, median (range)",[5],"0.5 (0.3, 3.1) h"
same,"AUC0-24, geometric mean (%CVb)",[6],1479.6 (79.7) h•ng/mL
same,"Cmax, geometric mean (%CVb)",[6],362.9 (115.9) ng/mL
same,"t1/2, geometric mean (%CVb)",[6],1.8 (--) h
same,"tmax, median (range)",[6],"0.9 (0.5, 1.1) h"
same,"AUC0-24, geometric mean (%CVb)","GSK3368715 100-mg total, Day 1",972.3 (27.1) h•ng/mL
same,"Cmax, geometric mean (%CVb)","GSK3368715 100-mg total, Day 1",197.4 (112.1) ng/mL
same,"t1/2, geometric mean (%CVb)","GSK3368715 100-mg total, Day 1",7.9 h
same,"tmax, median (range)","GSK3368715 100-mg total, Day 1","0.5 (0.3, 3.1) h"
same,"AUC0-24, geometric mean (%CVb)",[7],1573.8 (64.2) h•ng/mL
same,"Cmax, geometric mean (%CVb)",[7],375.5 (79.9) ng/mL
same,"t1/2, geometric mean (%CVb)",[7],1.6 (15.6) h
same,"tmax, median (range)",[7],"0.9 (0.5, 2.1) h"
